Experimental data: patent publication US9024041B2, “P38 MAP kinase inhibitors” (Respivert Ltd., priority 2010, dated 2015)
Marks after values point to notes of the source that are not given here.

What was measured:
[1] = system: LPS-induced IL-8 release in d-U937 cells; test: LPS-induced IL-8 release in d-U937 cells; type: cell-based; conditions: Homo sapiens, dU937, 0.1 μg/mL LPS, 4 hr
Method in brief: (§1)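 U937 cells differentiated with PMA (100 ng/mL, 48–72 hr), pre-incubated with compound 2 hr, then stimulated with 0.1 μg/mL E. coli O111:B4 LPS for 4 hr. Supernatant TNFα and IL-8 measured by sandwich ELISA; REC50 (TNFα) and IC50 (IL-8 inhibition vs vehicle) taken from concentration-response curves.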

[2] = target: T1, p38 MAPKα isoform (MAPK14: Invitrogen) (Homo sapiens, UniProt Q16539); test: p38 MAPKα enzyme inhibition assay (FRET, Z-LYTE, via MAPKAP-K2 activation); type: biochemical; conditions: 2 hr pre-incubation, ATP 10.0 μM; read-out: Enzyme Inhibition IC50 p38α
T1 construct: purchased Invitrogen

[3] = system: Poly I:C-induced ICAM-1 expression in BEAS2B cells; test: Poly I:C-induced ICAM-1 induction in BEAS2B cells; type: cell-based; conditions: Homo sapiens, BEAS-2B, poly I:C 1 μg/mL, 18 hr, read-out: PolyI:C/ICAM1 IC50 BEAS2B
Method in brief: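 Human bronchial epithelial BEAS2B cells were pre-incubated with compound for 2 h, then transfected with poly I:C at 1 μg/mL. Surface ICAM-1 was measured 18 h later by cell-based ELISA (OD450–655), normalised to crystal-violet cell number (OD595). IC50 was taken from the concentration–response curve against vehicle.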

[4] = system: LPS-induced TNFα release in d-U937 cells; test: LPS-induced TNFα release in d-U937 cells; type: cell-based; conditions: Homo sapiens, dU937, 4 h; read-out: LPS/TNFα REC50 d-U937
Method in brief: as §1

[5] = system: LPS-induced TNFα release in THP-1 cells; test: LPS-induced TNFα release in THP-1 cells; type: cell-based; conditions: Homo sapiens, 3 μg/mL LPS, 4 hr
Method in brief: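 Human monocytic cells were stimulated with 3 μg/mL E. coli LPS for 4 hr. Supernatant TNFα was measured by sandwich ELISA. Inhibition was taken relative to vehicle control, and IC50 derived from the concentration-response curve.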

[6] = system: Differentiated U937 cells; test: MTT assay: cell viability on exposure to test compounds; type: cell-based, human; conditions: percentage loss of cell viability vs vehicle; for MTT Assay (Viability) 4 h d-U937: 5% FCS; for MTT Assay (Viability) 24 h d-U937: 10% FCS
Method in brief: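 Differentiated U937 cells were pre-incubated with compound for either 4 h in 5% FCS or 24 h in 10% FCS, then given MTT for 1 h. Formazan was dissolved in DMSO and read at 550 nm. Viability loss is expressed as % versus 0.5% DMSO vehicle, so an apparent gain appears as a negative value.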

[7] = target: T2, Recombinant, phosphorylated p38 MAPKγ (MAPK12:Invitrogen) (Homo sapiens, UniProt P53778); test: p38 MAPKγ enzyme inhibition assay (FRET, Z-LYTE); type: biochemical; conditions: 2 hr pre-incubation, ATP 100 μM; read-out: Enzyme Inhibition IC50 p38γ
T2 construct: purchased Invitrogen
T2 sequence (P53778 1-367): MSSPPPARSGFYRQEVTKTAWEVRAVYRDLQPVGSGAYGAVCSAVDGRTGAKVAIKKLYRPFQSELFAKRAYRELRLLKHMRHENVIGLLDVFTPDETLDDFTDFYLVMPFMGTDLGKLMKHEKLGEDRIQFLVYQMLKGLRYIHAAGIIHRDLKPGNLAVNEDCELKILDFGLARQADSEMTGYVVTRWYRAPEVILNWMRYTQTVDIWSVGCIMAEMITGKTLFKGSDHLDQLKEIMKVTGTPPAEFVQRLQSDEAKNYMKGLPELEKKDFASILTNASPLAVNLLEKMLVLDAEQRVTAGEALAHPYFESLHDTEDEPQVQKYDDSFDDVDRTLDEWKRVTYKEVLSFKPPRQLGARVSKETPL
Experimental: The enzyme inhibitory activities of compounds disclosed herein were determined by fluorescence resonance energy transfer (FRET) using synthetic peptides labelled with both donor and acceptor fluorophores (Z-LYTE, Invitrogen Ltd., Paisley, UK). Recombinant, phosphorylated p38 MAPKγ (MAPK12:Invitrogen) was diluted in HEPES buffer, mixed with the test compound at the desired final concentrations and incubated for 2 hr at RT. The FRET peptide (2 μM) and ATP (100 μM) were added to the enzyme/compound mixture and incubated for 1 hr. Development reagent (protease) was added for 1 hr prior to detection in a fluorescence microplate reader (Varioskan® Flash, ThermoFisher Scientific). The site-specific protease cleaves non-phosphorylated peptide only and eliminates the FRET signal. Phosphorylation levels of each reaction were calculated using the ratio of coumarin emission (donor) over fluorescein emission (acceptor) for which high ratios indicate high phosphorylation and low ratios indicate low phosphorylation levels.

T1 sequence (Q16539 whole entry, canonical isoform): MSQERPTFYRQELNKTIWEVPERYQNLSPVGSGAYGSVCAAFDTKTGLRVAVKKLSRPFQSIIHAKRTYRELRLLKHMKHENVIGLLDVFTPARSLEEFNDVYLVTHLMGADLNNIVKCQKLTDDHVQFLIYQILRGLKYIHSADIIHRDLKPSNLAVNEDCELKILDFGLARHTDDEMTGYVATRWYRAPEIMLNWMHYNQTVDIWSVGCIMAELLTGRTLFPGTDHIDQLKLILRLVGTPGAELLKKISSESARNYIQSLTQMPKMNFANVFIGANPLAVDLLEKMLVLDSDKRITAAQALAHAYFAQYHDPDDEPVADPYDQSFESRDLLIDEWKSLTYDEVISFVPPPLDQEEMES

IC50 [1] [nM] | IC50 [2] [nM] | EC50 [4] [nM] | IC50 [5] [nM] | IC50 [7] [nM] | Compound | IC50 [3] [nM] | MTT Assay (Viability) 4 h d-U937 ([6]; 1 μg/mL) [%] | MTT Assay (Viability) 24 h d-U937 ([6]; 1 μg/mL) [%] | MTT Assay (Viability) 4 h d-U937 ([6]; 10 μg/mL) | MTT Assay (Viability) 24 h d-U937 ([6]; 10 μg/mL)
2.7 | 9.1 | 0.2 | 1.3 | 199 | COCC(=O)Nc1cc(Oc2ccc(NC(=O)Nc3cc(C(C)(C)C)nn3-c3ccc(OC)c(Cl)c3)c3ccccc23)ccn1 [Example 54, N-(4-(4-(3-(3-tert-butyl-1-(3-chloro-4-methoxyphenyl)-1H-pyrazol-5-yl)ureido)naphthalen-1-yloxy)pyridin-2-yl)-2-methoxyacetamide] | 0.7 | 0.1 | −7.5 |  | 
5.5 | 14.9 | 0.8 | 4.3 | 102 | COCC(=O)Nc1cc(Oc2ccc(NC(=O)Nc3cc(C(C)(C)C)nn3-c3ccc(Cl)c(Cl)c3)c3ccccc23)ccn1 [Example 55, N-(4-(4-(3-(3-tert-butyl-1-(3,4-dichlorophenyl)-1H-pyrazol-5-yl)ureido)naphthalen-1-yloxy)pyridin-2-yl)-2-methoxyacetamide] | 14.7 | −16.1 | −71.1 |  | 
17.2 | < 0.2 | 0.3 | 1.6 | 246 | COCC(=O)Nc1cc(Oc2ccc(NC(=O)Nc3cc(C(C)(C)C)nn3-c3ccc(C)nc3)c3ccccc23)ccn1 [Example 57, N-(4-(4-(3-(3-tert-butyl-1-(6-methylpyridin-3-yl)-1H-pyrazol-5-yl)ureido)naphthalen-1-yloxy)pyridin-2-yl)-2-methoxyacetamide] | 8.6 | −3.4 | 76.0 |  | 
45.6 | 10.6 | 10.4 | 388 | 329 | COCC(=O)Nc1cc(COc2ccc(NC(=O)Nc3cc(C(C)(C)C)nn3-c3ccc(C)cc3)c(C)c2C)ccn1 [Example 58, N-(4-((4-(3-(3-tert-butyl-1-(p-tolyl)-1H-pyrazol-5-yl)ureido)-2,3-dimethylphenoxy)methyl)pyridin-2-yl)-2-methoxyacetamide] | 474 | −2.8 | 12.0 |  | 
165 | 12.7 | 104 | 242 | 4150 | COCC(=O)Nc1cc(COc2ccc(NC(=O)Nc3cc(C(C)(C)C)nn3-c3ccc(OC)cc3)c(C)c2C)ccn1 [Example 59, N-(4-((4-(3-(3-tert-butyl-1-(4-methoxyphenyl)-1H-pyrazol-5-yl)ureido)-2,3-dimethylphenoxy)methyl)pyridin-2-yl)-2-methoxy acetamide] | 277 | 11.3 | 0.9 |  | 
364 | 13 | 24.3 | 122 | > 17500 | CNC(=O)Nc1cc(COc2ccc(NC(=O)Nc3cc(C(C)(C)C)nn3-c3ccc(OC)cc3)c(C)c2C)ccn1 [Example 60, 1-(4-((4-(3-(3-tert-butyl-1-(4-methoxyphenyl)-1H-pyrazol-5-yl)ureido)-2,3-dimethylphenoxy)methyl)pyridin-2-yl)-3-methylurea] | > 175 | 17.2 | −0.2 |  | 
204 | 12.8 | 120 | 1260 | 2810 | COCC(=O)Nc1cc(COc2ccc(NC(=O)Nc3cc(C(C)(C)C)nn3-c3ccc(OC)nc3)c(C)c2C)ccn1 [Example 61, N-(4-((4-(3-(3-tert-butyl-1-(6-methoxypyridin-3-yl)-1H-pyrazol-5-yl)ureido)-2,3-dimethylphenoxy)methyl)pyridin-2-yl)-2-methoxy acetamide] | > 1700 | 3.5 | −5.1 |  | 
14.4 | 14.8 | 2.5 | 2.6 | 20.3 | CNC(=O)Nc1cc(Oc2ccc(NC(=O)Nc3cc(C(C)(C)C)nn3-c3ccc(O)nc3)c(C)c2C)ccn1 [Example 62, 1-(4-(4-(3-(3-tert-butyl-1-(6-hydroxypyridin-3-yl)-1H-pyrazol-5-yl)ureido)-2,3-dimethylphenoxy)pyridin-2-yl)-3-methylurea] | 24.6 | −1.1 | −2.6 |  | 
125 | 16.2 | 26.3 | 28.3 | > 17500 | CNC(=O)Nc1cc(COc2ccc(NC(=O)Nc3cc(C(C)(C)C)nn3-c3ccc(OC)nc3)c(C)c2C)ccn1 [Example 63, 1-(4-((4-(3-(3-tert-butyl-1-(6-methoxypyridin-3-yl)-1H-pyrazol-5-yl)ureido)-2,3-dimethylphenoxy)methyl)pyridin-2-yl)-3-methylurea] | 178 | 32.5 | 21.2 |  | 
7.4 | 17.1 | 2.1 | 10.9 | 1650 | COCC(=O)Nc1cc(Cc2ccc(NC(=O)Nc3cc(C(C)(C)C)nn3-c3ccc(C)cc3)c3ccccc23)ccn1 [Example 64, N-(4-((4-(3-(3-tert-butyl-1-(p-tolyl)-1H-pyrazol-5-yl)ureido)naphthalen-1-yl)methyl)pyridin-2-yl)-2-methoxyacetamide] | 20.1 |  |  | −3.7^b % | 61.6^b %
18.9 | 1.2 | 10.9 | 10.7 | 275 | COCCOCC(=O)Nc1cc(Cc2ccc(NC(=O)Nc3cc(C(C)(C)C)nn3-c3ccc(C)cc3)c3ccccc23)ccn1 [Example 65, N-(4-((4-(3-(3-tert-butyl-1-p-tolyl-1H-pyrazol-5-yl)ureido)naphthalen-1-yl)methyl)pyridin-2-yl)-2-(2-methoxyethoxy)acetamide] | 62.7 |  |  | −1.5^b % | 55.9^b %
171 | 7.3 | 1 | 2.9 | 7360 | COCC(=O)Nc1cc(C(=O)c2ccc(NC(=O)Nc3cc(C(C)(C)C)nn3-c3ccc(C)cc3)c3ccccc23)ccn1 [Example 66, N-(4-(4-(3-(3-tert-butyl-1-p-tolyl-1H-pyrazol-5-yl)ureido)-1-naphthoyl)pyridin-2-yl)-2-methoxyacetamide] | 48.4 |  |  | 11.0^b % | 71.1^b %
